Key:
MCF-7 cells [1] = experiment: [3H]-Thymidine incorporation assay; format: cell-based, human; conditions: for effect on MCF-7 cell proliferation ([3H]-thymidine incorporation): 3 days treatment, FIG. 2 and 3
Protocol: MCF-7 cells (10,000 cells/well) were subcultured in 24 well plates and treated with hormone for 3 days in graded concentrations (FIG. 2). For the last 12 hours, [^3H]-thymidine (0.5 μCi/well) was added to cells. Cells were treated with TCA (20% for 15 minutes, twice with 10% for 3 minutes, and ethanol for 3 minutes). Acid-insoluble material was dissolved in 1 N NaOH, then neutralized with 1 N HCl. Radioactivity was measured by liquid scintillation counting. Data were expressed as radioactivity (% of control). The control was cells treated with vehicle (0.1% ethanol). […] Anti-proliferative effects of BCA11 and calcitriol were additive.

[2] = Serum calcium and toxicity with chronic in vivo administration; design: species or system athymic nude mice; conditions: 1 μg/kg alternate days, 5 weeks, FIG. 7
Protocol: MCF-7 cells were injected with Matrigel (10 mg/ml) into 7 weeks old female athymic nude mice. Tumors were grown in the presence of implanted estrogen pellets (0.72 mg pellets). After four weeks inoculation, mice were treated for 5 weeks with hormones or vehicle (propylene glycol) control on alternate days. BCA11 and EB1089 were added at a concentration of 1 μg/kg. Serum was drawn throughout hormone treatment from the orbital vein of the mice and assayed by the Department of Clinic Chemistry, National Institutes of Health, by methods well-known in the art. […] Similar results were obtained from multiple blood samples taken from the phase II study. Calcium and phosphorous levels were assayed by Ani Lytics and fell within normal ranges. In addition, alkaline phosphatase, albumin, bilirubin and creatinine levels were measured in both phases.

BT20 cells [3] = experiment: Growth of estrogen receptor-negative breast cancer in vivo; design: species or system athymic nude mice
Protocol: BT20 cells (estrogen receptor-negative, human breast cancer cells; 5 million) were injected with Matrigel (10 mg/ml) into each flank of 10 weeks old female athymic nude mice. Mice were maintained on a low-calcium diet (0.4% Ca, 0.3% P and no vitamin D; Harlan Teklad). Then, mice bearing equal number and size tumors were randomly selected for treatment groups. […] Treatment groups received 1.5 μg/kg BCA11 at approximately 21 days after injection of cells. Control groups received vehicle (25% propylene glycol and 75% saline). Drugs or vehicle were injected i.p. three times per week. Tumor growth was monitored biweekly with caliper measurements. […] (Biochem. Pharmacol. (1992)). […] After about four weeks, the mice were divided into treatment and control groups. […] Control groups received vehicle (25% propylene glycol and 75% saline). Drugs or vehicle were injected i.p. three times per week. Tumor growth was monitored biweekly with caliper measurements. Tumor volumes were calculated as indicated in Example 7.

MCF-7 cells [4] = experiment: In vivo inhibition of advanced stage tumor growth; design: species or system athymic nude mice; conditions: 2 mg/kg on alternate days, day 35, estrogen pellets
Protocol: MCF-7 cells were injected with Matrigel (10 mg/ml) into 7 weeks old female athymic nude mice (10 mice/treatment group). Tumors were grown in the presence of implanted estrogen pellets (0.72 mg pellets). Four weeks after inoculation, mice were treated for 5 weeks with hormones or vehicle (propylene glycol) on alternate days. BCA11 was added at a concentration of 1 μg/kg and Tamoxifen was added at a concentration of 2 mg/kg.

BT20 cells [5] = experiment: Effect of dietary vitamin D on BT20 tumor growth; format: in vivo, athymic nude mice; conditions: for tumor weight: day 69
Protocol: BT20 cells (estrogen receptor-negative, human breast cancer cells; 5 million) were injected with Matrigel (10 mg/ml) into each flank of 10 weeks old female athymic nude mice. Tumor growth was monitored for six weeks on a low-calcium diet (0.4% Ca, 0.3% P and no vitamin D; Harlan Teklad). Then, mice bearing equal number and size tumors were randomly selected for treatment groups. One group continued on the low-calcium diet (serum 25-OH-D3 approx. 2 pg/ml) and received vehicle and the other group was placed on a normal diet (1.19% Ca, 0.86% P, and 6.6 mg/kg vitamin D; serum 25-OH-D3 approx. 18 pg/ml) and received vehicle.
Six weeks old female athymic mice were placed on diets of 0.5% Ca, 0.3% P, and either no vitamin D (serum 25-OH-D3 approx. 3 pg/ml; serum calcitriol approx. 30 pg/ml) or vitamin D (4 mg/kg (serum 25-OH-D3 approx. 34 pg/ml; serum calcitriol approx. […]) or 40 mg/kg (serum 25-OH-D3 approx. 73 pg/ml; serum calcitriol approx. 70 pg/ml)). Two weeks later, BT20 cells (5 million) were injected with Matrigel (10 mg/ml) into each flank and tumor growth was monitored in the absence of drug treatment.

C=C1/C(=C\C=C2/CCC[C@]3(C)[C@@H]([C@H](C)CCCC(C)(C)O)CC[C@@H]23)C[C@@H](O)C[C@@H]1O [Calcitriol, 1,25-dihydroxycholecalciferol]
[3H]-Thymidine Incorporation MCF-7 cells (% of Control) (MCF-7 cells [1]; 10 nM of each hormone): 67 ± 8 % of Control
effect on MCF-7 cell proliferation ([3H]-thymidine incorporation) (MCF-7 cells [1]): stimulate cell growth

C=C1/C(=C\C=C2/CCC[C@]3(C)[C@@H]([C@H](C)/C=C/C=C/C(O)(CC)CC)CC[C@@H]23)C[C@@H](O)C[C@@H]1O [EB1089]
serum calcium levels [2]: fell within the normal range of physiological calcium
tumor weight (BT20 cells [3]; 1.0 μg/kg, day 69): ~0.07 g
tumor volume (BT20 cells [3]; i.p. three times per week, around 60 days of treatment, 4 mg/kg vitamin D diet): approximately 14 mm^3

CC/C(=C(\c1ccccc1)c1ccc(OCCN(C)C)cc1)c1ccccc1 [Tamoxifen]
inhibition of tumor growth (tumor volume) compared to control (MCF-7 cells [4]): about 50%

C[C@]12CC[C@@H]3c4ccc(O)cc4CC[C@H]3[C@@H]1CC[C@@H]2O [17β Estradiol]
effect on MCF-7 cell proliferation ([3H]-thymidine incorporation) (MCF-7 cells [1]): stimulate cell growth

vitamin D
tumor volume (BT20 cells [5]; diet with 4 mg/kg vitamin D, 36 days after injection of BT20 cells): approximately 12.5 mm^3
tumor weight (BT20 cells [5]; diet with 4 mg/kg vitamin D): approximately 0.3 g
tumor volume (BT20 cells [5]; diet with 40 mg/kg vitamin D, 36 days after injection of BT20 cells): approximately 9.5 mm^3
tumor weight (BT20 cells [5]; diet with 40 mg/kg vitamin D): approximately 0.19 g
tumor volume (BT20 cells [5]; normal diet with 6.6 mg/kg vitamin D, 41 days after inoculation): approx. 37 mm^3

Reference: patent US7361664B2, “Vitamin D receptor antagonists and related compositions and methods of use” (The United States of America as represented by the …, priority 2001, dated 2008)
